Reference: patent US20250368649A1, “TETRAHYDROPYRIDOPYRIMIDINE PAN-KRAS INHIBITORS” (Mirati Therapeutics, Inc., priority 2022, published 2025)

Columns and labels:
[1] = target: KRas G13D (Homo sapiens, UniProt P01116, G13D); format: binding; conditions: TR-FRET displacement, read-out: Binding to KRas (IC50 nM) G13D
[2] = target: KRas G12D (Homo sapiens, UniProt P01116, G12D); assay: biochemical; conditions: Binding to KRas (IC50 nM) G12D, TR-FRET displacement, KRas G12D
[3] = target: KRas G12R (Homo sapiens, UniProt P01116, G12R); assay: biochemical; conditions: Binding to KRas (IC50 nM) G12R, TR-FRET displacement, KRas G12R
KRas G12R, sequence (P01116 1-169 isoform P01116-2 G12R): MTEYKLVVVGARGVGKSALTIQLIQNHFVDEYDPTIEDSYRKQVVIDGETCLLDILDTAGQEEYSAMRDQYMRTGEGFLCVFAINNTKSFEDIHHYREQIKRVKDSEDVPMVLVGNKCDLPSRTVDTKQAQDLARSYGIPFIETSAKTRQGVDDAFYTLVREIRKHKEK

[4] = target: KRas Q61H (Homo sapiens, UniProt P01116, Q61H); assay: KRas binding assay (TR-FRET displacement), KRas Q61H; conditions: TR-FRET displacement
KRas Q61H, sequence (P01116 1-169 isoform P01116-2 Q61H): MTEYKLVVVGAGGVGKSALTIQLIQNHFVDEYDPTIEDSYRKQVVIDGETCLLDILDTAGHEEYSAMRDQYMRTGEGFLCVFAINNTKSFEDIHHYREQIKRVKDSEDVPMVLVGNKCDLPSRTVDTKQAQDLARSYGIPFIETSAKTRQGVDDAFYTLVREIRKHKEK

[5] = target: KRas G12A (Homo sapiens, UniProt P01116, G12A); format: binding; conditions: TR-FRET displacement, read-out: Binding to KRas (IC50 nM) G12A
KRas G12A, sequence (P01116 1-169 isoform P01116-2 G12A): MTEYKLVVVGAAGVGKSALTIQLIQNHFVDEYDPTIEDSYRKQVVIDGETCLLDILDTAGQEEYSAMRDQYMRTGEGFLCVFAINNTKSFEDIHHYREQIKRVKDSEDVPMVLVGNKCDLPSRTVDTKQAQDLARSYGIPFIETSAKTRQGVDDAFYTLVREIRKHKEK

[6] = target: KRas G12C (Homo sapiens, UniProt P01116, G12C); format: binding; conditions: TR-FRET displacement, read-out: Binding to KRas (IC50 nM) G12C
KRas G12C, sequence (P01116 1-169 isoform P01116-2 G12C): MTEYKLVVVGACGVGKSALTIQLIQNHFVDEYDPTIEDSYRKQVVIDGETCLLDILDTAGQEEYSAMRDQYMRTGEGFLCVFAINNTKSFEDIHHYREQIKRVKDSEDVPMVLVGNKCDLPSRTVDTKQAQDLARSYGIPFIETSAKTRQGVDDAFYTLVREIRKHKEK

[7] = target: KRas G12V (Homo sapiens, UniProt P01116, G12V); assay: biochemical; conditions: Binding to KRas (IC50 nM) G12V, TR-FRET displacement, KRas G12V
KRas G12V, sequence (P01116 1-169 isoform P01116-2 G12V): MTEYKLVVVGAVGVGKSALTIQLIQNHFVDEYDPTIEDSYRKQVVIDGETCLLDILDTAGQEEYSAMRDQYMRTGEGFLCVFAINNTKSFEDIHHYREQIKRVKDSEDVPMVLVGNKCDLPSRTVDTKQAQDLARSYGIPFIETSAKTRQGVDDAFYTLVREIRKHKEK

[8] = target: KRas WT (Homo sapiens, UniProt P01116); assay: KRas binding assay (TR-FRET displacement), KRas WT; conditions: TR-FRET displacement
KRas WT, sequence (P01116 1-169 isoform P01116-2): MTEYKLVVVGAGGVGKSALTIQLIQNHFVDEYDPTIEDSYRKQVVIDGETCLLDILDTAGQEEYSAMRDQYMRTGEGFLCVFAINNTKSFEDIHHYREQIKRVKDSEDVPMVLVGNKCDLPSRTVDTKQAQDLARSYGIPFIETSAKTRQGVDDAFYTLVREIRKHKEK

[9] = target: KRas G12S (Homo sapiens, UniProt P01116, G12S); format: binding; conditions: TR-FRET displacement, read-out: Binding to KRas (IC50 nM) G12S
KRas G12S, sequence (P01116 1-169 isoform P01116-2 G12S): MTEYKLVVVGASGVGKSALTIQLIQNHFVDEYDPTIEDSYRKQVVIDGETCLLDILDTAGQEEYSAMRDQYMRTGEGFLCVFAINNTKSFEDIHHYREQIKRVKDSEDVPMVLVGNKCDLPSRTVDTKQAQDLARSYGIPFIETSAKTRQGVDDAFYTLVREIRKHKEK

KRas G13D, sequence (P01116 1-169 isoform P01116-2 G13D): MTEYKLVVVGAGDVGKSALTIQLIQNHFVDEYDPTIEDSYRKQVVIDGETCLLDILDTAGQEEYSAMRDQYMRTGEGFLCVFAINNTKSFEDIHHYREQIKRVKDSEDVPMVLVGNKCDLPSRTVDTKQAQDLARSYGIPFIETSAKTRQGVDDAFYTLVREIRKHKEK
KRas G12D, sequence (P01116 1-169 isoform P01116-2 G12D): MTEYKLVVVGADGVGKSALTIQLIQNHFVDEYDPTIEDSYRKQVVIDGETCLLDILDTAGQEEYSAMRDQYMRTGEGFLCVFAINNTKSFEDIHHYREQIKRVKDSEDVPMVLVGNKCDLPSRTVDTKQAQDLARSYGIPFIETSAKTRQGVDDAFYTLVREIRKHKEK

| SMILES | IC50 [1] [nM] | IC50 [2] [nM] | IC50 [3] [nM] | IC50 [4] [nM] | IC50 [5] [nM] | IC50 [6] [nM] | IC50 [7] [nM] | IC50 [8] [nM] | IC50 [9] [nM] |
| --- | --- | --- | --- | --- | --- | --- | --- | --- | --- |
| CCc1cccc2cccc(N3CCc4c(nc(OCC56CCCN5CCC6)nc4N4CCC(O)CC(S(C)(=O)=O)C4)C3)c12 (single isomer, unassigned) [Example 479, 1-(7-(8-ethylnaphthalen-1-yl)-2-((tetrahydro-1H-pyrrolizin-7a(5H)-yl)methoxy)-5,6,7,8-tetrahydropyrido[3,4-d]pyrimidin-4-yl)-6-(methylsulfonyl)azepan-4-ol] | 32 | 99 | 130 | 42 | 55 | 81 | 54 | 33 | 56 |
| CCc1cccc2cccc(N3CCc4c(nc(OCC5(CN(C)C)CC5)nc4NC4CN(c5nncs5)C4)C3)c12 [Example 674, N-(1-(1,3,4-thiadiazol-2-yl)azetidin-3-yl)-2-((1-((dimethylamino)methyl)cyclopropyl)methoxy)-7-(8-ethylnaphthalen-1-yl)-5,6,7,8-tetrahydropyrido[3,4-d]pyrimidin-4-amine] | 4050 | 1410 |  | 3960 | 3970 | 2030 | 1250 | 3490 | 3700 |
| CCc1cccc2cccc(N3CCc4c(nc(OCC5(CN(C)C)CC5)nc4NCc4nc(C5CC5)n[nH]4)C3)c12 [Example 675, N-((3-cyclopropyl-1H-1,2,4-triazol-5-yl)methyl)-2-((1-((dimethylamino)methyl)cyclopropyl)methoxy)-7-(8-ethylnaphthalen-1-yl)-5,6,7,8-tetrahydropyrido[3,4-d]pyrimidin-4-amine] | 15300 | 6300 |  | 25300 | 17300 | 8480 | 3240 | 16900 | 16600 |
| CCc1cccc2cccc(N3CCc4c(nc(OCC5(CN(C)C)CC5)nc4NCc4cnc(C)nc4N)C3)c12 [Example 677, N-((4-amino-2-methylpyrimidin-5-yl)methyl)-2-((1-((dimethylamino)methyl)cyclopropyl)methoxy)-7-(8-ethylnaphthalen-1-yl)-5,6,7,8-tetrahydropyrido[3,4-d]pyrimidin-4-amine] | 13900 | 2330 |  | 14100 | 9110 | 6330 | 4410 | 11000 | 13600 |
| CCc1cccc2cccc(N3CCc4c(nc(OCC5(CN(C)C)CC5)nc4N4CCCn5nc(CO)cc5C4)C3)c12 [Example 694, (5-(2-((1-((dimethylamino)methyl)cyclopropyl)methoxy)-7-(8-ethylnaphthalen-1-yl)-5,6,7,8-tetrahydropyrido[3,4-d]pyrimidin-4-yl)-5,6,7,8-tetrahydro-4H-pyrazolo[1,5-a][1,4]diazepin-2-yl)methanol] | 4480 | 131 |  | 4850 | 2220 | 651 | 437 | 1930 | 946 |
| CCc1cccc2cccc(N3CCc4c(nc(OCC5(CN(C)C)CC5)nc4NC4CN(c5nccn6nc(C)cc56)C4)C3)c12 [Example 699, 2-((1-((dimethylamino)methyl)cyclopropyl)methoxy)-7-(8-ethylnaphthalen-1-yl)-N-(1-(2-methylpyrazolo[1,5-a]pyrazin-4-yl)azetidin-3-yl)-5,6,7,8-tetrahydropyrido[3,4-d]pyrimidin-4-amine] | 9980 | 6150 |  | 8740 | 8450 | 4200 | 5460 | 7340 | 9980 |
| CCc1cccc2cccc(N3CCc4c(nc(OCC5(CN(C)C)CC5)nc4NCc4ncc5c(n4)CCOC5)C3)c12 [Example 701, N-((7,8-dihydro-5H-pyrano[4,3-d]pyrimidin-2-yl)methyl)-2-((1-((dimethylamino)methyl)cyclopropyl)methoxy)-7-(8-ethylnaphthalen-1-yl)-5,6,7,8-tetrahydropyrido[3,4-d]pyrimidin-4-amine] | 6620 | 7730 |  | 6070 | 6300 | 3620 | 2030 | 5290 | 5830 |
| CCc1cccc2cccc(N3CCc4c(nc(OCC5(CN(C)C)CC5)nc4NC4CC(n5ccnn5)C4)C3)c12 (stereo not drawn) [Example 703, N-(3-(1H-1,2,3-triazol-1-yl)cyclobutyl)-2-((1-((dimethylamino)methyl)cyclopropyl)methoxy)-7-(8-ethylnaphthalen-1-yl)-5,6,7,8-tetrahydropyrido[3,4-d]pyrimidin-4-amine] | 16100 | 10700 |  | 15900 | 13500 | 9490 | 4790 | 12400 | 13500 |
| CCc1cccc2cccc(N3CCc4c(nc(OCC5(CN(C)C)CC5)nc4NCc4ncc(C#N)c(N)n4)C3)c12 [Example 706, 4-amino-2-(((2-((1-((dimethylamino)methyl)cyclopropyl)methoxy)-7-(8-ethylnaphthalen-1-yl)-5,6,7,8-tetrahydropyrido[3,4-d]pyrimidin-4-yl)amino)methyl)pyrimidine-5-carbonitrile] | 3330 | 7670 |  | 3770 | 2810 | 1680 | 2200 | 3310 | 2820 |

Other lines, results leading:

| IC50 [1] [nM] | IC50 [2] [nM] | IC50 [3] [nM] | IC50 [4] [nM] | IC50 [5] [nM] | IC50 [6] [nM] | IC50 [7] [nM] | IC50 [8] [nM] | IC50 [9] [nM] | SMILES |
| --- | --- | --- | --- | --- | --- | --- | --- | --- | --- |
| 6220 | 4290 |  | 6700 | 6300 | 3410 | 1910 | 5010 | 7090 | CCc1cccc2cccc(N3CCc4c(nc(OCC5(CN(C)C)CC5)nc4NC4CN(C(=O)NC)C4)C3)c12 [Example 676, 3-((2-((1-((dimethylamino)methyl)cyclopropyl)methoxy)-7-(8-ethylnaphthalen-1-yl)-5,6,7,8-tetrahydropyrido[3,4-d]pyrimidin-4-yl)amino)-N-methylazetidine-1-carboxamide] |
| 16100 | 8310 |  | 12100 | 8280 | 5450 | 5850 | 10800 | 8600 | CCc1cccc2cccc(N3CCc4c(nc(OCC5(CN(C)C)CC5)nc4NCc4ccnn4CC(F)F)C3)c12 [Example 683, N-((1-(2,2-difluoroethyl)-1H-pyrazol-5-yl)methyl)-2-((1-((dimethylamino)methyl)cyclopropyl)methoxy)-7-(8-ethylnaphthalen-1-yl)-5,6,7,8-tetrahydropyrido[3,4-d]pyrimidin-4-amine] |
| 2220 | 41700 | 11400 | 2210 | 2640 | 1810 | 11200 | 1880 | 1960 | CCc1cccc2cccc(N3CCc4c(nc(OCC5(CN(C)C)CC5)nc4N4CCCN(CC(F)(F)F)CC4)C3)c12 [Example 684, 1-(1-(((7-(8-ethylnaphthalen-1-yl)-4-(4-(2,2,2-trifluoroethyl)-1,4-diazepan-1-yl)-5,6,7,8-tetrahydropyrido[3,4-d]pyrimidin-2-yl)oxy)methyl)cyclopropyl)-N,N-dimethylmethanamine] |
| 14500 | 37400 |  | 18100 | 9730 | 10000 | 6430 | 14600 | 17700 | CCc1cccc2cccc(N3CCc4c(nc(OCC5(CN(C)C)CC5)nc4N4CCC(n5cn[nH]c5=O)CC4)C3)c12 [Example 688, 4-(1-(2-((1-((dimethylamino)methyl)cyclopropyl)methoxy)-7-(8-ethylnaphthalen-1-yl)-5,6,7,8-tetrahydropyrido[3,4-d]pyrimidin-4-yl)piperidin-4-yl)-2,4-dihydro-3H-1,2,4-triazol-3-one] |
| 21800 | 3070 |  | 15900 | 16500 | 10900 | 8520 | 13300 | 20500 | CCc1cccc2cccc(N3CCc4c(nc(OCC5(CN(C)C)CC5)nc4NCC4COCC4n4cc(C(N)=O)nn4)C3)c12 (stereo not drawn) [Example 705, 1-(4-(((2-((1-((dimethylamino)methyl)cyclopropyl)methoxy)-7-(8-ethylnaphthalen-1-yl)-5,6,7,8-tetrahydropyrido[3,4-d]pyrimidin-4-yl)amino)methyl)tetrahydrofuran-3-yl)-1H-1,2,3-triazole-4-carboxamide] |
